Where “and” joins values, the source holds several entries; their conditions need not be identical. Equal entries are not always repeated. ± gives the uncertainty stated by the source.
Assay: xn = mol fraction of the nth substance listed

[Br-].[Li+] + O
viscosity
Settings	293.15 K	298.15 K	303.15 K	308.15 K	313.15 K	318.15 K	323.15 K
100 kPa, x1 = 0.018	–	1.019 ± 0.1 mPa·s	0.916 ± 0.092 mPa·s	0.832 ± 0.083 mPa·s	0.764 ± 0.077 mPa·s	0.705 ± 0.071 mPa·s	0.656 ± 0.066 mPa·s
100 kPa, x1 = 0.035	–	1.161 ± 0.12 mPa·s	1.052 ± 0.11 mPa·s	0.966 ± 0.097 mPa·s	0.888 ± 0.089 mPa·s	0.822 ± 0.082 mPa·s	0.763 ± 0.076 mPa·s
100 kPa, x1 = 0.058	–	1.307 ± 0.13 mPa·s	1.185 ± 0.12 mPa·s	1.084 ± 0.11 mPa·s	0.998 ± 0.1 mPa·s	0.922 ± 0.092 mPa·s	0.857 ± 0.086 mPa·s
100 kPa, x1 = 0.092	–	1.601 ± 0.16 mPa·s	1.452 ± 0.15 mPa·s	1.327 ± 0.13 mPa·s	1.219 ± 0.12 mPa·s	1.126 ± 0.11 mPa·s	1.045 ± 0.11 mPa·s
100 kPa, x1 = 0.129	–	2.164 ± 0.22 mPa·s	1.972 ± 0.2 mPa·s	1.806 ± 0.18 mPa·s	1.662 ± 0.17 mPa·s	1.536 ± 0.15 mPa·s	1.427 ± 0.14 mPa·s
100 kPa, x1 = 0.17	–	3.258 ± 0.33 mPa·s	2.945 ± 0.3 mPa·s	2.683 ± 0.27 mPa·s	2.459 ± 0.25 mPa·s	2.263 ± 0.23 mPa·s	2.093 ± 0.21 mPa·s
100 kPa, x1 = 0.206	–	5.202 ± 0.52 mPa·s	4.669 ± 0.47 mPa·s	4.221 ± 0.42 mPa·s	3.841 ± 0.38 mPa·s	3.512 ± 0.35 mPa·s	3.225 ± 0.32 mPa·s
100 kPa, x1 = 0.246	–	9.066 ± 0.91 mPa·s	8.028 ± 0.81 mPa·s	7.154 ± 0.72 mPa·s	6.41 ± 0.64 mPa·s	5.769 ± 0.58 mPa·s	5.198 ± 0.52 mPa·s
101 kPa, x1 = 0.0109	1.079 ± 0.028 mPa·s	–	0.855 ± 0.022 mPa·s	–	–	–	0.593 ± 0.015 mPa·s
101 kPa, x1 = 0.0353	1.245 ± 0.033 mPa·s	–	0.999 ± 0.026 mPa·s	–	–	–	0.694 ± 0.018 mPa·s
101 kPa, x1 = 0.0649	1.472 ± 0.039 mPa·s	–	1.195 ± 0.031 mPa·s	–	–	–	0.842 ± 0.022 mPa·s
101 kPa, x1 = 0.1	1.8 ± 0.09 mPa·s	1.6 ± 0.08 mPa·s	1.44 ± 0.07 mPa·s	–	1.18 ± 0.06 mPa·s	–	–
101 kPa, x1 = 0.101	1.854 ± 0.048 mPa·s	–	1.523 ± 0.039 mPa·s	–	–	–	1.093 ± 0.028 mPa·s
101 kPa, x1 = 0.12	2.11 ± 0.1 mPa·s	1.86 ± 0.09 mPa·s	1.66 ± 0.08 mPa·s	–	1.38 ± 0.07 mPa·s	–	–
101 kPa, x1 = 0.131	2.377 ± 0.062 mPa·s	–	1.947 ± 0.05 mPa·s	–	–	–	1.408 ± 0.036 mPa·s
101 kPa, x1 = 0.14	2.35 ± 0.11 mPa·s	2.08 ± 0.1 mPa·s	1.89 ± 0.09 mPa·s	–	1.57 ± 0.08 mPa·s	–	–
101 kPa, x1 = 0.15	2.6 ± 0.1 mPa·s	2.34 ± 0.11 mPa·s	2.09 ± 0.1 mPa·s	–	1.72 ± 0.08 mPa·s	–	–
101 kPa, x1 = 0.16	3.12 ± 0.15 mPa·s	2.79 ± 0.13 mPa·s	2.48 ± 0.12 mPa·s	–	–	–	–
101 kPa, x1 = 0.1711	3.648 ± 0.095 mPa·s	–	2.957 ± 0.076 mPa·s	–	–	–	2.093 ± 0.054 mPa·s
101 kPa, x1 = 0.19	4.21 ± 0.2 mPa·s	3.73 ± 0.18 mPa·s	3.34 ± 0.16 mPa·s	–	–	–	–
101 kPa, x1 = 0.2	3.54 ± 0.17 mPa·s and 5.05 ± 0.24 mPa·s	3.1 ± 0.2 mPa·s and 4.45 ± 0.21 mPa·s	2.77 ± 0.13 mPa·s and 3.95 ± 0.19 mPa·s	–	–	–	–
101 kPa, x1 = 0.22	–	5.61 ± 0.27 mPa·s	5 ± 0.24 mPa·s	–	–	–	–
101 kPa, x1 = 0.24	–	7.22 ± 0.35 mPa·s	6.36 ± 0.3 mPa·s	–	–	–	–
101 kPa, x1 = 0.25	–	9.43 ± 0.45 mPa·s	8.1 ± 0.4 mPa·s	–	–	–	–

— the CheMixHub viscosity set
